{
  "source": "patent US10500178B2",
  "about": "“LTB4 inhibition to prevent and treat human lymphedema” (The Board of Trustees of the Leland Stanford Junior …, priority 2015, dated 2019)",
  "key": {"S1P, S1pr1, Sphk1, eNOS": {"tested_on": "S1P, S1pr1, Sphk1, eNOS", "assay": "S1P signaling in mouse lymphedema", "type": "in vivo", "conditions": "therapy initiated 3d after surgery", "method": "(§1) All small molecule drugs were administered through daily intraperitoneal injection.\nQuantification of LTB4, PGE2 and S1P with LC-MS/MS. Briefly, LTB4, PGE2 and S1P were separated from serum with an ACE reverse phase C18 HPLC column. Formic acid 0.5% in 5 mM NH4Ac (A) and formic acid 0.5% in acetonitrile/water (9/1) (B) were used as the mobile phase. Lipids were detected with positive multiple reaction monitor (MRM) scanning at 335.16/194.80 m/z for LTB4, 351.20/189.50 m/z for PGE2 and 330.20/264.40 m/z for S1P using a Sciex API-4000 MS/MS combined with a Shimazu 20A HPLC system. The internal standard of this method was Carbutamide. The quantification limit was 1 ng/ml. The calibration range was 1-2000 ng/ml. The accuracy of the standards and control samples ranged from 88.7% to 120%."}, "secondary leg lymphedema": {"tested_on": "secondary leg lymphedema", "assay": "study of ubenimex in patients with secondary leg lymphedema", "type": "in vivo, human", "conditions": "oral 150 mg three times daily, 6-month treatment period", "method": "A study is conducted for treatment of patients with acquired lymphedema of the lower extremities with ubenimex. In this study, ubenimex is evaluated over a 6-month treatment period to determine the effect on dermal thickness and other efficacy measures in patients with secondary leg lymphedema. The efficacy, safety and tolerability of ubenimex in this patient population is characterized. Adult male and female subjects are enrolled with a confirmed diagnosis of Stage II or greater secondary leg lymphedema, based on a positive lymphoscintigraphy (LSG) study of the affected leg. At least 20 individuals are enrolled in each of the treatment and placebo arm of the trial. Individuals are given oral 150 mg ubenimex three times daily for a total daily dose of 450 mg. The drug and placebo are provided in a capsule form. Efficacy assessments include skin thickness (as measured by skinfold calipers), leg volume (as measured by standardized tape measure), bioimpedance (as measured by the […]) to measure 4-limb bioimpedance to determine extracellular fluid volume), and skin biopsy results (as measured by 6-mm skin punch biopsy samples to assess skin thickness and architecture (e.g., presence of hyperkeratosis, dermal collagen, and adipose deposition)."}, "Notch signaling": {"tested_on": "Notch signaling", "assay": "Notch signaling in mouse lymphedema (NICD, Hey1, EphrinB2)", "type": "in vivo", "conditions": "WT mice", "method": "as §1\nWestern Blot HLECs were lysed with RIPA buffer containing protease and phosphatase inhibitors. Lysates were sonicated briefly and centrifuged. The supernatant was collected and protein concentration was determined by BCA assay. 60 µg of protein were resolved on a 10% SDS-PAGE gel, transferred to a nitrocellulose membrane, blocked with 5% milk and probed with one of the following antibodies: anti-Sphk1 (3297,Cell Signaling); antip-Sphk1(SP1641, ECM Biosciences); anti-NICD (ab8925,Abcam), anti-VEGFR3 (AF743,R&D); anti-DLL4 (ab7280, Abcam). Actin was used to normalize the total protein. […] Images were acquired by Zeiss 710 confocal microscopy and analyzed using ImageJ software.\nQuantitative RT-PCR. Quantitative PCR (qRT-PCR) was performed using FastStart SYBR Green (Roche) on a Lightcycler 480. mRNA expression relative to GAPDH mRNA levels were calculated using the delta-delta threshold cycle (ΔΔCT) method. […]"}, "[1]": {"tested_on": "acquired lymphedema surgically induced in the tails of female C57BL/6J mice", "assay": "mouse-tail model of acquired lymphedema (tail volume, histology)", "type": "in vivo", "method": "Surgical induction of experimental lymphatic vascular insufficiency. […] Briefly, a full-thickness circumferential incision of the skin was made 16 mm distal to the base of the mouse tail under anesthesia. Lymphatic trunks were ablated through controlled, limited cautery application under the surgical microscope. For surgical controls (sham animals), the skin incision alone was performed without lymphatic cautery.\nas §1\nTail volume quantitation. Tail-volume measurements at each designated time were quantified by observers blinded to the treatment status of the subjects. Tail volumes were calculated through a digital photographic technique pre-operatively, and post-operatively (d3, d9, d14, d20, and d24), using an Olympus D520 Zoom digital camera at SHQ resolution at a fixed distance from the subject (37 cm), as previously described. Tail volumes were derived from the measurement of the tail diameter using the truncated cone approximation. Microlymphangiography was performed by injecting FITC-dextran (size: 2000 kDa) subcutaneously into mouse tails on post-surgery d24. Images were taken 20 minutes after injection.\nViral particles were mixed with Lipofectamine 2,000 (5% final vol/vol, Invitrogen) before injection, to increase transduction efficiency. qRT-PCR, immunofluorescence and fluorescence in situ hybridization were used to evaluate the silencing efficiency in the mouse tail skin 24d after surgery."}},
  "data": [
    {"smiles": "CC(C)C[C@H](NC(=O)[C@@H](O)[C@H](N)Cc1ccccc1)C(=O)O", "note": "[bestatin, (2S)-2-[[(2S,3R)-3-amino-2-hydroxy-4-phenylbutanoyl]amino]-4-methylpentanoic acid]", "values": [
      {"measurement": "S1P and S1pr1 levels", "setting": "S1P, S1pr1, Sphk1, eNOS", "result": "restored"},
      {"measurement": "Sphk1 and eNOS expression", "setting": "S1P, S1pr1, Sphk1, eNOS", "result": "normalized"},
      {"measurement": "difference between ubenimex and placebo treatment arms by clinical indicia", "setting": "secondary leg lymphedema", "result": "statistically significant difference"},
      {"measurement": "Hey1 and EphrinB2 expression in diseased lymphatics", "setting": "Notch signaling", "result": "normalized"},
      {"measurement": "NICD nuclear accumulation in mouse lymphedema", "setting": "Notch signaling", "result": "restored"},
      {"measurement": "benefit of LTB4 antagonism administered prior to surgery", "setting": "[1]; therapies administered prior to sham and lymphedema surgery (bestatin, Ly293111 from d0, shLtb4r1 on d(−7))", "result": "not beneficial"},
      {"measurement": "amelioration of lymphedema (serial tail-volume measurements over 24d)", "setting": "[1]; therapies started on post-surgery d3 (late LTB4 antagonism)", "result": "demonstrated therapeutic amelioration of lymphedema"},
      {"measurement": "reversal of more established disease by delayed dosing", "setting": "[1]; therapy initiated 9d or 14d post-surgically", "result": "effective"}
    ]}
  ]
}
